Experiments:
Experiment in all cases: Test B preemergence/postemergence greenhouse plant response rating 0 to 10
wild buckwheat = format: in vivo, Polygonum convolvulus; conditions: for Plant response rating, Wild buckwheat: 0 to 10 scale
Outline: (§1)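 Test chemicals were sprayed onto freshly planted seed and, concurrently, onto young plants between the one and four leaf stage. After a twelve- to sixteen-day greenhouse period, each species was visually compared with untreated controls.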

morningglory = format: in vivo, Ipomoea hederacea; conditions: for Plant response rating, Morningglory: 0 to 10 scale
Outline: as §1

sugar beet = format: in vivo, Beta vulgaris; conditions: for Plant response rating, Sugar beet: 0 to 10 scale
Outline: as §1

cheatgrass = format: in vivo, Bromus secalinus; conditions: for Plant response rating, Cheatgrass: 0 to 10 scale
Outline: as §1

chickweed = format: in vivo, Stellaria media; conditions: for Plant response rating, Chickweed: 0 to 10 scale
Outline: as §1

velvetleaf = format: in vivo, Abutilon theophrasti; conditions: for Plant response rating, Velvetleaf: 0 to 10 scale
Outline: as §1

rice = format: in vivo, Oryza sativa; conditions: for Plant response rating, Rice: 0 to 10 scale
Outline: as §1

cotton = format: in vivo, Gossypium hirsutum; conditions: for Plant response rating, Cotton: 0 to 10 scale
Outline: as §1

barnyardgrass = format: in vivo, Echinochloa crus-galli; conditions: for Plant response rating, Barnyardgrass: 0 to 10 scale
Outline: as §1

giant foxtail = format: in vivo, Setaria faberii; conditions: for Plant response rating, Giant foxtail: 0 to 10 scale
Outline: as §1

corn = format: in vivo, Zea mays; conditions: for Plant response rating, Corn: 0 to 10 scale
Outline: as §1

wild oat = format: in vivo, Avena fatua; conditions: for Plant response rating, Wild oat: 0 to 10 scale
Outline: as §1

bedstraw = format: in vivo, Galium aparine; conditions: for Plant response rating, Bedstraw: 0 to 10 scale
Outline: as §1

cocklebur = format: in vivo, Xanthium pensylvanicum; conditions: for Plant response rating, Cocklebur: 0 to 10 scale
Outline: as §1

rape = format: in vivo, Brassica napus; conditions: for Plant response rating, Rape: 0 to 10 scale
Outline: as §1

purple nutsedge = format: in vivo, Cyperus rotundus; conditions: for Plant response rating, Nutsedge: 0 to 10 scale
Outline: as §1

lambsquarters = format: in vivo, Chenopodium album; conditions: for Plant response rating, Lambsquarter: 0 to 10 scale
Outline: as §1

soybean = format: in vivo, Glycine max; conditions: for Plant response rating, Soybean: 0 to 10 scale
Outline: as §1

blackgrass = format: in vivo, Alopecurus myosuroides; conditions: for Plant response rating, Blackgrass: 0 to 10 scale
Outline: as §1

sorghum = format: in vivo, Sorghum bicolor; conditions: for Plant response rating, Sorghum: 0 to 10 scale
Outline: as §1

wheat = format: in vivo, Triticum aestivum; conditions: for Plant response rating, Wheat: 0 to 10 scale
Outline: as §1

crabgrass = format: in vivo, Digitaria spp.; conditions: for Plant response rating, Crabgrass: 0 to 10 scale
Outline: as §1

barley = format: in vivo, Hordeum vulgare; conditions: for Plant response rating, Barley: 0 to 10 scale
Outline: as §1

SMILES: C#CC(C)Oc1cc(-c2nn3c(c2Cl)CCCC3)c(Cl)cc1Cl (centres unmarked) [Compound 74]
- Plant response rating, Wild buckwheat (wild buckwheat; POSTEMERGENCE, Rate 50 g/ha): 10
- Plant response rating, Wild buckwheat (wild buckwheat; PREEMERGENCE, Rate 50 g/ha): 5
- Plant response rating (0 to 10 scale), Wild buckwheat (wild buckwheat; PREEMERGENCE, Rate 200 g/ha): 9
- Plant response rating, Wild buckwheat (wild buckwheat; Rate 200 g/ha, POSTEMERGENCE): 10
- Plant response rating, Morningglory (morningglory; POSTEMERGENCE, Rate 50 g/ha): 9
- Plant response rating, Morningglory (morningglory; PREEMERGENCE, Rate 50 g/ha): 0
- Plant response rating (0 to 10 scale), Morningglory (morningglory; PREEMERGENCE, Rate 200 g/ha): 0
- Plant response rating, Morningglory (morningglory; Rate 200 g/ha, POSTEMERGENCE): 9
- Plant response rating, Sugar beet (sugar beet; POSTEMERGENCE, Rate 50 g/ha): 10
- Plant response rating, Sugar beet (sugar beet; PREEMERGENCE, Rate 50 g/ha): 0
- Plant response rating (0 to 10 scale), Sugar beet (sugar beet; PREEMERGENCE, Rate 200 g/ha): 10
- Plant response rating, Sugar beet (sugar beet; Rate 200 g/ha, POSTEMERGENCE): 10
- Plant response rating, Cheatgrass (cheatgrass; POSTEMERGENCE, Rate 50 g/ha): 6
- Plant response rating, Cheatgrass (cheatgrass; PREEMERGENCE, Rate 50 g/ha): 4
- Plant response rating (0 to 10 scale), Cheatgrass (cheatgrass; PREEMERGENCE, Rate 200 g/ha): 4
- Plant response rating, Cheatgrass (cheatgrass; Rate 200 g/ha, POSTEMERGENCE): 6
- Plant response rating, Chickweed (chickweed; POSTEMERGENCE, Rate 50 g/ha): 6
- Plant response rating, Chickweed (chickweed; PREEMERGENCE, Rate 50 g/ha): 0
- Plant response rating (0 to 10 scale), Chickweed (chickweed; PREEMERGENCE, Rate 200 g/ha): 5
- Plant response rating, Chickweed (chickweed; Rate 200 g/ha, POSTEMERGENCE): 7
- Plant response rating, Velvetleaf (velvetleaf; POSTEMERGENCE, Rate 50 g/ha): 10
- Plant response rating, Velvetleaf (velvetleaf; PREEMERGENCE, Rate 50 g/ha): 5
- Plant response rating (0 to 10 scale), Velvetleaf (velvetleaf; PREEMERGENCE, Rate 200 g/ha): 9
- Plant response rating, Velvetleaf (velvetleaf; Rate 200 g/ha, POSTEMERGENCE): 10
- Plant response rating, Rice (rice; POSTEMERGENCE, Rate 50 g/ha): 3
- Plant response rating, Rice (rice; PREEMERGENCE, Rate 50 g/ha): 0
- Plant response rating (0 to 10 scale), Rice (rice; PREEMERGENCE, Rate 200 g/ha): 0
- Plant response rating, Rice (rice; Rate 200 g/ha, POSTEMERGENCE): 6
- Plant response rating, Cotton (cotton; POSTEMERGENCE, Rate 50 g/ha): 10
- Plant response rating, Cotton (cotton; PREEMERGENCE, Rate 50 g/ha): 0
- Plant response rating (0 to 10 scale), Cotton (cotton; PREEMERGENCE, Rate 200 g/ha): 0
- Plant response rating, Cotton (cotton; Rate 200 g/ha, POSTEMERGENCE): 10
- Plant response rating, Barnyardgrass (barnyardgrass; POSTEMERGENCE, Rate 50 g/ha): 5
- Plant response rating, Barnyardgrass (barnyardgrass; PREEMERGENCE, Rate 50 g/ha): 0
- Plant response rating (0 to 10 scale), Barnyardgrass (barnyardgrass; PREEMERGENCE, Rate 200 g/ha): 1
- Plant response rating, Barnyardgrass (barnyardgrass; Rate 200 g/ha, POSTEMERGENCE): 7
- Plant response rating, Giant foxtail (giant foxtail; POSTEMERGENCE, Rate 50 g/ha): 5
- Plant response rating, Giant foxtail (giant foxtail; PREEMERGENCE, Rate 50 g/ha): 2
- Plant response rating (0 to 10 scale), Giant foxtail (giant foxtail; PREEMERGENCE, Rate 200 g/ha): 6
- Plant response rating, Giant foxtail (giant foxtail; Rate 200 g/ha, POSTEMERGENCE): 5
- Plant response rating, Corn (corn; POSTEMERGENCE, Rate 50 g/ha): 2
- Plant response rating, Corn (corn; PREEMERGENCE, Rate 50 g/ha): 0
- Plant response rating (0 to 10 scale), Corn (corn; PREEMERGENCE, Rate 200 g/ha): 0
- Plant response rating, Corn (corn; Rate 200 g/ha, POSTEMERGENCE): 4
- Plant response rating, Wild oat (wild oat; POSTEMERGENCE, Rate 50 g/ha): 4
- Plant response rating, Wild oat (wild oat; PREEMERGENCE, Rate 50 g/ha): 0
- Plant response rating (0 to 10 scale), Wild oat (wild oat; PREEMERGENCE, Rate 200 g/ha): 3
- Plant response rating, Wild oat (wild oat; Rate 200 g/ha, POSTEMERGENCE): 4
- Plant response rating, Bedstraw (bedstraw; POSTEMERGENCE, Rate 50 g/ha): 8
- Plant response rating, Bedstraw (bedstraw; PREEMERGENCE, Rate 50 g/ha): 0
- Plant response rating (0 to 10 scale), Bedstraw (bedstraw; PREEMERGENCE, Rate 200 g/ha): 9
- Plant response rating, Bedstraw (bedstraw; Rate 200 g/ha, POSTEMERGENCE): 9
- Plant response rating, Cocklebur (cocklebur; POSTEMERGENCE, Rate 50 g/ha): 9
- Plant response rating, Cocklebur (cocklebur; PREEMERGENCE, Rate 50 g/ha): 0
- Plant response rating (0 to 10 scale), Cocklebur (cocklebur; PREEMERGENCE, Rate 200 g/ha): 0
- Plant response rating, Cocklebur (cocklebur; Rate 200 g/ha, POSTEMERGENCE): 10
- Plant response rating, Rape (rape; POSTEMERGENCE, Rate 50 g/ha): 10
- Plant response rating, Rape (rape; PREEMERGENCE, Rate 50 g/ha): 0
- Plant response rating (0 to 10 scale), Rape (rape; PREEMERGENCE, Rate 200 g/ha): 7
- Plant response rating, Rape (rape; Rate 200 g/ha, POSTEMERGENCE): 10
- Plant response rating, Nutsedge (purple nutsedge; POSTEMERGENCE, Rate 50 g/ha): 2
- Plant response rating, Nutsedge (purple nutsedge; PREEMERGENCE, Rate 50 g/ha): 0
- Plant response rating (0 to 10 scale), Nutsedge (purple nutsedge; PREEMERGENCE, Rate 200 g/ha): 0
- Plant response rating, Nutsedge (purple nutsedge; Rate 200 g/ha, POSTEMERGENCE): 2
- Plant response rating, Lambsquarter (lambsquarters; POSTEMERGENCE, Rate 50 g/ha): 9
- Plant response rating, Lambsquarter (lambsquarters; PREEMERGENCE, Rate 50 g/ha): 9
- Plant response rating (0 to 10 scale), Lambsquarter (lambsquarters; PREEMERGENCE, Rate 200 g/ha): 10
- Plant response rating, Lambsquarter (lambsquarters; Rate 200 g/ha, POSTEMERGENCE): 10
- Plant response rating, Soybean (soybean; POSTEMERGENCE, Rate 50 g/ha): 6
- Plant response rating, Soybean (soybean; PREEMERGENCE, Rate 50 g/ha): 0
- Plant response rating (0 to 10 scale), Soybean (soybean; PREEMERGENCE, Rate 200 g/ha): 0
- Plant response rating, Soybean (soybean; Rate 200 g/ha, POSTEMERGENCE): 6
- Plant response rating, Blackgrass (blackgrass; POSTEMERGENCE, Rate 50 g/ha): 6
- Plant response rating, Blackgrass (blackgrass; PREEMERGENCE, Rate 50 g/ha): 0
- Plant response rating (0 to 10 scale), Blackgrass (blackgrass; PREEMERGENCE, Rate 200 g/ha): 8
- Plant response rating, Blackgrass (blackgrass; Rate 200 g/ha, POSTEMERGENCE): 6
- Plant response rating, Sorghum (sorghum; POSTEMERGENCE, Rate 50 g/ha): 5
- Plant response rating, Sorghum (sorghum; PREEMERGENCE, Rate 50 g/ha): 0
- Plant response rating (0 to 10 scale), Sorghum (sorghum; PREEMERGENCE, Rate 200 g/ha): 0
- Plant response rating, Sorghum (sorghum; Rate 200 g/ha, POSTEMERGENCE): 7
- Plant response rating, Wheat (wheat; POSTEMERGENCE, Rate 50 g/ha): 4
- Plant response rating, Wheat (wheat; PREEMERGENCE, Rate 50 g/ha): 0
- Plant response rating (0 to 10 scale), Wheat (wheat; PREEMERGENCE, Rate 200 g/ha): 0
- Plant response rating, Wheat (wheat; Rate 200 g/ha, POSTEMERGENCE): 5
- Plant response rating, Crabgrass (crabgrass; POSTEMERGENCE, Rate 50 g/ha): 3
- Plant response rating, Crabgrass (crabgrass; PREEMERGENCE, Rate 50 g/ha): 2
- Plant response rating (0 to 10 scale), Crabgrass (crabgrass; PREEMERGENCE, Rate 200 g/ha): 6
- Plant response rating, Crabgrass (crabgrass; Rate 200 g/ha, POSTEMERGENCE): 5
- Plant response rating, Barley (barley; POSTEMERGENCE, Rate 50 g/ha): 2
- Plant response rating, Barley (barley; PREEMERGENCE, Rate 50 g/ha): 0
- Plant response rating (0 to 10 scale), Barley (barley; PREEMERGENCE, Rate 200 g/ha): 0
- Plant response rating, Barley (barley; Rate 200 g/ha, POSTEMERGENCE): 4

Source: US6358885B1, “Substituted phenylheterocyclic herbicides” (Mississippi State University, priority 1992, dated 2002)
